According to ChEMBL document CHEMBL3785084, “Rational modification of the lead molecule: Enhancement in the anticancer and dihydrofolate reductase inhibitory activity” (Bioorg Med Chem Lett, 2016):

How the values were obtained:
[1] = cells; conditions: Homo sapiens, CAKI-1, 48 h
Description: Cytotoxicity against human Caki1 cells after 48 hrs by sulforhodamine B assay

[2] = cells; conditions: Homo sapiens, OVCAR-5, 48 h
Description: Cytotoxicity against human OVCAR5 cells after 48 hrs by sulforhodamine B assay

[3] = cells; conditions: Homo sapiens, IGROV-1, 48 h
Description: Cytotoxicity against human IGROV1 cells after 48 hrs by sulforhodamine B assay

[4] = system: A549; assay: cells; conditions: Homo sapiens, A549, 48 h
Description: Cytotoxicity against human A549 cells after 48 hrs by sulforhodamine B assay

[5] = system: M14; assay: cells; conditions: Homo sapiens, M14, 48 h
Description: Cytotoxicity against human M14 cells after 48 hrs by sulforhodamine B assay

[6] = system: K562; assay: cells; conditions: Homo sapiens, K562, 48 h
Description: Cytotoxicity against human K562 cells after 48 hrs by sulforhodamine B assay

[7] = Cytotoxicity against human NCI-ADR-RES cells after 48 hrs by sulforhodamine B assay; assay type: functional
[8] = cells; conditions: Homo sapiens, PC-3, 48 h
Description: Cytotoxicity against human PC3 cells after 48 hrs by sulforhodamine B assay

[9] = system: SN12C; assay: cells; conditions: Homo sapiens, 48 h
Description: Cytotoxicity against human SN12C cells after 48 hrs by sulforhodamine B assay

[10] = cells; conditions: Homo sapiens, RXF 393, 48 h
Description: Cytotoxicity against human RXF393 cells after 48 hrs by sulforhodamine B assay

[11] = system: HT-29; assay: cells; conditions: Homo sapiens, HT-29, 48 h
Description: Cytotoxicity against human HT-29 cells after 48 hrs by sulforhodamine B assay

[12] = system: MDA-MB-231; assay: cells; conditions: Homo sapiens, MDA-MB-231, 48 h
Description: Cytotoxicity against human MDA-MB-231 cells after 48 hrs by sulforhodamine B assay

[13] = system: NCI-H522; assay: cells; conditions: Homo sapiens, NCI-H522, 48 h
Description: Cytotoxicity against human NCI-H522 cells after 48 hrs by sulforhodamine B assay

[14] = system: NCI-H460; assay: cells; conditions: Homo sapiens, NCI-H460, 48 h
Description: Cytotoxicity against human NCI-H460 cells after 48 hrs by sulforhodamine B assay

[15] = cells; conditions: Homo sapiens, HOP-62, 48 h
Description: Cytotoxicity against human HOP62 cells after 48 hrs by sulforhodamine B assay

[16] = cells; conditions: Homo sapiens, SK-OV-3, 48 h
Description: Cytotoxicity against human SKOV3 cells after 48 hrs by sulforhodamine B assay

[17] = cells; conditions: Homo sapiens, OVCAR-3, 48 h
Description: Cytotoxicity against human OVCAR3 cells after 48 hrs by sulforhodamine B assay

[18] = system: MDA-MB-468; assay: cells; conditions: Homo sapiens, MDA-MB-468, 48 h
Description: Cytotoxicity against human MDA-MB-468 cells after 48 hrs by sulforhodamine B assay

[19] = Cytotoxicity against human Hs 578T cells after 48 hrs by sulforhodamine B assay; assay type: functional
[20] = cells; conditions: Homo sapiens, HL-60, 48 h
Description: Cytotoxicity against human HL-60(TB) cells after 48 hrs by sulforhodamine B assay

[21] = cells; conditions: Homo sapiens, UACC-257, 48 h
Description: Cytotoxicity against human UACC257 cells after 48 hrs by sulforhodamine B assay

[22] = cells; conditions: Homo sapiens, MOLT-4, 48 h
Description: Cytotoxicity against human MOLT4 cells after 48 hrs by sulforhodamine B assay

[23] = cells; conditions: Homo sapiens, HCC 2998, 48 h
Description: Cytotoxicity against human HCC2998 cells after 48 hrs by sulforhodamine B assay

[24] = cells; conditions: Homo sapiens, UACC-62, 48 h
Description: Cytotoxicity against human UACC62 cells after 48 hrs by sulforhodamine B assay

[25] = cells; conditions: Homo sapiens, RPMI-8226, 48 h
Description: Cytotoxicity against human RPMI8226 cells after 48 hrs by sulforhodamine B assay

[26] = cells; conditions: Homo sapiens, HCT-116, 48 h
Description: Cytotoxicity against human HCT116 cells after 48 hrs by sulforhodamine B assay

[27] = system: T47D; assay: cells; conditions: Homo sapiens, 48 h
Description: Cytotoxicity against human T47D cells after 48 hrs by sulforhodamine B assay

[28] = system: Malme-3M; assay: cells; conditions: Homo sapiens, 48 h
Description: Cytotoxicity against human MALME-3M cells after 48 hrs by sulforhodamine B assay

[29] = cells; conditions: Homo sapiens, HOP-92, 48 h
Description: Cytotoxicity against human HOP92 cells after 48 hrs by sulforhodamine B assay

[30] = cells; conditions: Homo sapiens, DU-145, 48 h
Description: Cytotoxicity against human DU145 cells after 48 hrs by sulforhodamine B assay

[31] = system: SK-MEL-5; assay: cells; conditions: Homo sapiens, SK-MEL-5, 48 h
Description: Cytotoxicity against human SK-MEL-5 cells after 48 hrs by sulforhodamine B assay

[32] = system: MCF7; assay: cells; conditions: Homo sapiens, MCF7, 48 h
Description: Cytotoxicity against human MCF7 cells after 48 hrs by sulforhodamine B assay

[33] = cells; conditions: Homo sapiens, HCT-15, 48 h
Description: Cytotoxicity against human HCT15 cells after 48 hrs by sulforhodamine B assay

[34] = system: 786-0; assay: cells; conditions: Homo sapiens, 786-0, 48 h
Description: Cytotoxicity against human 786-0 cells after 48 hrs by sulforhodamine B assay

[35] = cells; conditions: Homo sapiens, SNB-75, 48 h
Description: Cytotoxicity against human SNB75 cells after 48 hrs by sulforhodamine B assay

[36] = system: NCI-H23; assay: cells; conditions: Homo sapiens, NCI-H23, 48 h
Description: Cytotoxicity against human NCI-H23 cells after 48 hrs by sulforhodamine B assay

[37] = read-out: LC50 (the source's name)

Work on `COc1cc(/C=C2\C(=O)Nc3ccccc32)cc(OC)c1O` yielded a GI50 [1] of 2.9 µM, a TGI [1] of 25.1 µM and a CC50 ([1]; read-out: LC50) greater than 100 µM. For the same compound, the GI50 [2] was 4.7 µM, the TGI [2] was 18.6 µM and the CC50 ([2]; read-out: LC50) was 52.4 µM. It also gave a GI50 [3] of 3.7 µM, a TGI [3] of 20.4 µM and a CC50 ([3]; read-out: LC50) of 85.1 µM. The GI50 [4] was 4.9 µM, the TGI [4] was 47.8 µM and the CC50 ([4]; read-out: LC50) was greater than 100 µM. It also gave a GI50 [5] of 2.7 µM, a TGI [5] of 10.9 µM and a CC50 ([5]; read-out: LC50) of 67.6 µM. The GI50 [6] was 2.1 µM, the TGI [6] was greater than 100 µM and the CC50 ([6]; read-out: LC50) was greater than 100 µM. It also gave a GI50 [7] of 2.5 µM, a TGI [7] of 7.5 µM and a CC50 [7, 37] greater than 100 µM. For the same compound, the GI50 [8] was 20.8 µM, the TGI [8] was greater than 100 µM and the CC50 ([8]; read-out: LC50) was greater than 100 µM. It also gave a GI50 [9] of 3.6 µM, a TGI [9] of 23.4 µM and a CC50 ([9]; read-out: LC50) greater than 100 µM. It also gave a GI50 [10] of 2.5 µM, a TGI [10] of 8.3 µM and a CC50 ([10]; read-out: LC50) of 30.9 µM. The GI50 [11] was 9.1 µM, the TGI [11] was 30.9 µM and the CC50 ([11]; read-out: LC50) was greater than 100 µM. It also gave a GI50 [12] of 3.1 µM, a TGI [12] of 20.8 µM and a CC50 ([12]; read-out: LC50) greater than 100 µM. It also gave a GI50 [13] of 1.7 µM, a TGI [13] of 5.1 µM and a CC50 ([13]; read-out: LC50) of 22.9 µM. It also gave a GI50 [14] of 3 µM, a TGI [14] of 11.7 µM and a CC50 ([14]; read-out: LC50) of 53.7 µM. It also gave a GI50 [15] of 4.3 µM, a TGI [15] of 23.4 µM and a CC50 ([15]; read-out: LC50) greater than 100 µM. For the same compound, the GI50 [16] was 3.9 µM, the TGI [16] was 21.3 µM and the CC50 ([16]; read-out: LC50) was greater than 100 µM. The GI50 [17] was 2 µM, the TGI [17] was 5 µM and the CC50 ([17]; read-out: LC50) was 22.3 µM. It also gave a GI50 [18] of 1.5 µM, a TGI [18] of 7.7 µM and a CC50 ([18]; read-out: LC50) of 63.1 µM. For the same compound, the GI50 [19] was 1.8 µM, the TGI [19] was 6.1 µM and the CC50 [19, 37] was greater than 100 µM. For the same compound, the GI50 [20] was 2.8 µM, the TGI [20] was 11.2 µM and the CC50 ([20]; read-out: LC50) was greater than 100 µM. For the same compound, the GI50 [21] was 1.8 µM, the TGI [21] was 18.6 µM and the CC50 ([21]; read-out: LC50) was 67.6 µM. It also gave a GI50 [22] of 3.8 µM, a TGI [22] of 93.3 µM and a CC50 ([22]; read-out: LC50) greater than 100 µM. It also gave a GI50 [23] of 11.7 µM, a TGI [23] of 24.5 µM and a CC50 ([23]; read-out: LC50) of 51.3 µM. It also gave a GI50 [24] of 2.6 µM, a TGI [24] of 11.2 µM and a CC50 ([24]; read-out: LC50) of 35.4 µM. For the same compound, the GI50 [25] was 5.5 µM, the TGI [25] was 27.5 µM and the CC50 ([25]; read-out: LC50) was greater than 100 µM. The GI50 [26] was 3.3 µM, the TGI [26] was 13.4 µM and the CC50 ([26]; read-out: LC50) was 37.1 µM. The GI50 [27] was 3.5 µM, the TGI [27] was 85.1 µM and the CC50 ([27]; read-out: LC50) was greater than 100 µM. The GI50 [28] was 2.9 µM, the TGI [28] was 21.8 µM and the CC50 ([28]; read-out: LC50) was greater than 100 µM. It also gave a GI50 [29] of 4.2 µM, a TGI [29] of 48.9 µM and a CC50 ([29]; read-out: LC50) greater than 100 µM. It also gave a GI50 [30] of 5.4 µM, a TGI [30] of 46.7 µM and a CC50 ([30]; read-out: LC50) greater than 100 µM. It also gave a GI50 [31] of 2.9 µM, a TGI [31] of 10.7 µM and a CC50 ([31]; read-out: LC50) of 33.1 µM. It also gave a GI50 [32] of 0.7 µM, a TGI [32] of 15.1 µM and a CC50 ([32]; read-out: LC50) greater than 100 µM. It also gave a GI50 [33] of 3.2 µM, a TGI [33] of 15.1 µM and a CC50 ([33]; read-out: LC50) of 64.5 µM. For the same compound, the GI50 [34] was 7.1 µM, the TGI [34] was 27.5 µM and the CC50 ([34]; read-out: LC50) was 91.2 µM. It also gave a GI50 [35] of 11.7 µM, a TGI [35] of 8.5 µM and a CC50 ([35]; read-out: LC50) greater than 100 µM. It also gave a GI50 [36] of 5 µM, a TGI [36] of 33.8 µM and a CC50 ([36]; read-out: LC50) greater than 100 µM.
